From US9302999B2, “Substituted triazoles as herbicides” (E. I. DU PONT DE NEMOURS AND COMPANY, priority 2012, dated 2016)

Experiments:
Format in all cases: in vivo
[1] = tested on: barnyardgrass (Echinochloa crus-galli); test: Test A pre-/postemergence: barnyardgrass; settings: for Barnyardgrass plant response rating: Postemergence; for Plant response rating, Barnyardgrass: Preemergence
From the text: (§1) Seeds of barnyardgrass (Echinochloa crus-galli), crabgrass, large (large crabgrass, Digitaria sanguinalis), foxtail, giant (giant foxtail, Setaria faberii), morningglory (Ipomoea spp.), pigweed (Amaranthus retroflexus), velvetleaf (Abutilon theophrasti), wheat (Triticum aestivum), and corn (Zea mays) were planted into a blend of loam soil and sand and treated preemergence with a directed soil spray using test chemicals formulated in a non-phytotoxic solvent mixture which included a surfactant. At the same time these species were also treated with postemergence applications of test chemicals formulated in the same manner.
(§2) Plants ranged in height from two to ten cm and were in the one- to two-leaf stage for the postemergence treatment. Treated plants and untreated controls were maintained in a greenhouse for approximately ten days, after which time all treated plants were compared to untreated controls and visually evaluated for injury. Plant response ratings, summarized in Table A, are based on a 0 to 100 scale where 0 is no effect and 100 is complete control. A dash (-) response means no test result.

[2] = tested on: crabgrass, large (large crabgrass, Digitaria sanguinalis); test: Test A pre-/postemergence: crabgrass, large; settings: for Crabgrass, Large plant response rating: Postemergence; for Plant response rating, Crabgrass, Large: Preemergence
From the text: as §1, §2

[3] = tested on: foxtail, giant (giant foxtail, Setaria faberii); test: Test A pre-/postemergence: foxtail, giant; settings: for Foxtail, Giant plant response rating: Postemergence; for Plant response rating, Foxtail, Giant: Preemergence
From the text: as §1, §2

[4] = tested on: morningglory (Ipomoea spp.); test: Test A pre-/postemergence: morningglory; settings: for Morningglory plant response rating: Postemergence; for Plant response rating, Morningglory: Preemergence
From the text: as §1, §2

[5] = tested on: pigweed (Amaranthus retroflexus); test: Test A pre-/postemergence: pigweed; settings: for Pigweed plant response rating: Postemergence; for Plant response rating, Pigweed: Preemergence
From the text: as §1, §2

[6] = tested on: velvetleaf (Abutilon theophrasti); test: Test A pre-/postemergence: velvetleaf; settings: for Velvetleaf plant response rating: Postemergence; for Plant response rating, Velvetleaf: Preemergence
From the text: as §1, §2

[7] = tested on: wheat (Triticum aestivum); test: Test A pre-/postemergence: wheat; settings: for Wheat plant response rating: Postemergence; for Plant response rating, Wheat: Preemergence
From the text: as §1, §2

corn (Zea mays) = test: Test A pre-/postemergence: corn; settings: for Corn plant response rating: Postemergence; for Plant response rating, Corn: Preemergence
From the text: as §1, §2

[8] = 125 g ai/ha, 0 to 100 scale, 0 is no effect, 100 is complete control
[9] = 500 g ai/ha, visual rating on 0 to 100 scale (0 no effect, 100 complete control), approximately ten days
[10] = 125 g ai/ha, 0 to 100 scale (0 no effect, 100 complete control)
[11] = 500 g ai/ha, 0 to 100 scale, 0 is no effect, 100 is complete control
[12] = 125 g ai/ha, 0 to 100 scale where 0 is no effect and 100 is complete control
[13] = 500 g ai/ha, 0 to 100 scale (0 no effect, 100 complete control)

Cc1nn(-c2ccc(F)cc2)nc1Oc1ccc(Cl)c(C(F)(F)F)c1 [Compound 99]
Barnyardgrass plant response rating [1, 8]: 10 | Barnyardgrass plant response rating [1, 9]: 30 | Plant response rating, Barnyardgrass [1, 10]: 0 | Plant response rating, Barnyardgrass [1, 11]: 10 | Crabgrass, Large plant response rating [2, 8]: 30 | Crabgrass, Large plant response rating [2, 9]: 70 | Plant response rating, Crabgrass, Large [2, 10]: 30 | Plant response rating, Crabgrass, Large [2, 11]: 60 | Foxtail, Giant plant response rating [3, 8]: 20 | Foxtail, Giant plant response rating [3, 9]: 80 | Plant response rating, Foxtail, Giant [3, 12]: 10 | Plant response rating, Foxtail, Giant [3, 11]: 80 | Morningglory plant response rating [4, 8]: 60 | Morningglory plant response rating [4, 9]: 80 | Plant response rating, Morningglory [4, 12]: 0 | Plant response rating, Morningglory [4, 11]: 0 | Pigweed plant response rating [5, 8]: 70 | Pigweed plant response rating [5, 9]: 100 | Plant response rating, Pigweed [5, 12]: 20 | Plant response rating, Pigweed [5, 11]: 60 | Velvetleaf plant response rating [6, 8]: 10 | Velvetleaf plant response rating [6, 9]: 60 | Plant response rating, Velvetleaf [6, 12]: 0 | Plant response rating, Velvetleaf [6, 11]: 20 | Wheat plant response rating [7, 8]: 0 | Wheat plant response rating [7, 9]: 20 | Plant response rating, Wheat [7, 12]: 0 | Plant response rating, Wheat [7, 11]: 0 | Corn plant response rating (corn (Zea mays); [8]): 20 | Corn plant response rating (corn (Zea mays); [9]): 20 | Plant response rating, Corn (corn (Zea mays); [10]): 0 | Plant response rating, Corn (corn (Zea mays); [11]): 0

Cc1nn(-c2ccc(F)cc2)nc1Oc1cccc(OC(F)(F)F)c1 [Compound 100]
Barnyardgrass plant response rating [1, 8]: 10 | Barnyardgrass plant response rating [1, 9]: 30 | Plant response rating, Barnyardgrass [1, 10]: 0 | Plant response rating, Barnyardgrass [1, 11]: 20 | Crabgrass, Large plant response rating [2, 8]: 60 | Crabgrass, Large plant response rating [2, 9]: 80 | Plant response rating, Crabgrass, Large [2, 10]: 10 | Plant response rating, Crabgrass, Large [2, 11]: 90 | Foxtail, Giant plant response rating [3, 8]: 50 | Foxtail, Giant plant response rating [3, 9]: 70 | Plant response rating, Foxtail, Giant [3, 12]: 20 | Plant response rating, Foxtail, Giant [3, 11]: 70 | Morningglory plant response rating [4, 8]: 90 | Morningglory plant response rating [4, 9]: 90 | Plant response rating, Morningglory [4, 12]: 0 | Plant response rating, Morningglory [4, 11]: 0 | Pigweed plant response rating [5, 8]: 80 | Pigweed plant response rating [5, 9]: 90 | Plant response rating, Pigweed [5, 12]: 10 | Plant response rating, Pigweed [5, 11]: 90 | Velvetleaf plant response rating [6, 8]: 30 | Velvetleaf plant response rating [6, 9]: 70 | Plant response rating, Velvetleaf [6, 12]: 0 | Plant response rating, Velvetleaf [6, 11]: 0 | Wheat plant response rating [7, 8]: 0 | Wheat plant response rating [7, 9]: 20 | Plant response rating, Wheat [7, 12]: 0 | Plant response rating, Wheat [7, 11]: 0 | Corn plant response rating (corn (Zea mays); [8]): 10 | Corn plant response rating (corn (Zea mays); [9]): 20 | Plant response rating, Corn (corn (Zea mays); [10]): 0 | Plant response rating, Corn (corn (Zea mays); [11]): 0

Cc1nn(-c2ccc(C(F)(F)F)cc2)nc1Oc1ccc(Cl)c(C(F)(F)F)c1 [Compound 103]
Barnyardgrass plant response rating [1, 8]: 0 | Barnyardgrass plant response rating [1, 9]: 0 | Plant response rating, Barnyardgrass [1, 10]: 0 | Plant response rating, Barnyardgrass [1, 11]: 0 | Crabgrass, Large plant response rating [2, 8]: 0 | Crabgrass, Large plant response rating [2, 9]: 30 | Plant response rating, Crabgrass, Large [2, 10]: 0 | Plant response rating, Crabgrass, Large [2, 11]: 10 | Foxtail, Giant plant response rating [3, 8]: 0 | Foxtail, Giant plant response rating [3, 9]: 20 | Plant response rating, Foxtail, Giant [3, 12]: 0 | Plant response rating, Foxtail, Giant [3, 11]: 0 | Morningglory plant response rating [4, 8]: 0 | Morningglory plant response rating [4, 9]: 0 | Plant response rating, Morningglory [4, 12]: 0 | Plant response rating, Morningglory [4, 11]: 0 | Pigweed plant response rating [5, 8]: 50 | Pigweed plant response rating [5, 9]: 70 | Plant response rating, Pigweed [5, 12]: 10 | Plant response rating, Pigweed [5, 11]: 30 | Velvetleaf plant response rating [6, 8]: 0 | Velvetleaf plant response rating [6, 9]: 10 | Plant response rating, Velvetleaf [6, 12]: 0 | Plant response rating, Velvetleaf [6, 11]: 0 | Wheat plant response rating [7, 8]: 0 | Wheat plant response rating [7, 9]: 0 | Plant response rating, Wheat [7, 12]: 0 | Plant response rating, Wheat [7, 11]: 0 | Corn plant response rating (corn (Zea mays); [8]): 0 | Corn plant response rating (corn (Zea mays); [9]): 0 | Plant response rating, Corn (corn (Zea mays); [10]): 0 | Plant response rating, Corn (corn (Zea mays); [11]): 0

OCc1nn(-c2ccc(C(F)(F)F)cc2)nc1Oc1cccc(C(F)(F)F)c1 [Compound 110]
Barnyardgrass plant response rating [1, 8]: 20 | Barnyardgrass plant response rating [1, 9]: 30 | Plant response rating, Barnyardgrass [1, 10]: 0 | Plant response rating, Barnyardgrass [1, 11]: 0 | Crabgrass, Large plant response rating [2, 8]: 50 | Crabgrass, Large plant response rating [2, 9]: 70 | Plant response rating, Crabgrass, Large [2, 10]: 0 | Plant response rating, Crabgrass, Large [2, 11]: 20 | Foxtail, Giant plant response rating [3, 8]: 20 | Foxtail, Giant plant response rating [3, 9]: 30 | Plant response rating, Foxtail, Giant [3, 12]: 0 | Plant response rating, Foxtail, Giant [3, 11]: 20 | Morningglory plant response rating [4, 8]: 90 | Morningglory plant response rating [4, 9]: 100 | Plant response rating, Morningglory [4, 12]: 10 | Plant response rating, Morningglory [4, 11]: 20 | Pigweed plant response rating [5, 8]: 70 | Pigweed plant response rating [5, 9]: 100 | Plant response rating, Pigweed [5, 12]: 0 | Plant response rating, Pigweed [5, 11]: 50 | Velvetleaf plant response rating [6, 8]: 30 | Velvetleaf plant response rating [6, 9]: 60 | Plant response rating, Velvetleaf [6, 12]: 0 | Plant response rating, Velvetleaf [6, 11]: 10 | Wheat plant response rating [7, 8]: 10 | Wheat plant response rating [7, 9]: 30 | Plant response rating, Wheat [7, 12]: 0 | Plant response rating, Wheat [7, 11]: 0 | Corn plant response rating (corn (Zea mays); [8]): 20 | Corn plant response rating (corn (Zea mays); [9]): 30 | Plant response rating, Corn (corn (Zea mays); [10]): 0 | Plant response rating, Corn (corn (Zea mays); [11]): 0

Cc1nn(-c2ccc(F)cc2)nc1Cn1cnc(C(F)(F)F)c1 [Compound 112]
Barnyardgrass plant response rating [1, 8]: 0 | Barnyardgrass plant response rating [1, 9]: 30 | Plant response rating, Barnyardgrass [1, 12]: 0 | Plant response rating, Barnyardgrass [1, 13]: 40 | Crabgrass, Large plant response rating [2, 8]: 50 | Crabgrass, Large plant response rating [2, 9]: 90 | Plant response rating, Crabgrass, Large [2, 12]: 80 | Plant response rating, Crabgrass, Large [2, 13]: 100 | Foxtail, Giant plant response rating [3, 8]: 20 | Foxtail, Giant plant response rating [3, 9]: 80 | Plant response rating, Foxtail, Giant [3, 12]: 60 | Plant response rating, Foxtail, Giant [3, 13]: 90 | Morningglory plant response rating [4, 8]: 60 | Morningglory plant response rating [4, 9]: 100 | Plant response rating, Morningglory [4, 12]: 0 | Plant response rating, Morningglory [4, 13]: 20 | Pigweed plant response rating [5, 8]: 90 | Pigweed plant response rating [5, 9]: 100 | Plant response rating, Pigweed [5, 12]: 90 | Plant response rating, Pigweed [5, 13]: 100 | Velvetleaf plant response rating [6, 8]: 50 | Velvetleaf plant response rating [6, 9]: 60 | Plant response rating, Velvetleaf [6, 12]: 0 | Plant response rating, Velvetleaf [6, 13]: 20 | Wheat plant response rating [7, 8]: 10 | Wheat plant response rating [7, 9]: 30 | Plant response rating, Wheat [7, 12]: 0 | Plant response rating, Wheat [7, 13]: 0 | Corn plant response rating (corn (Zea mays); [8]): 20 | Corn plant response rating (corn (Zea mays); [9]): 20 | Plant response rating, Corn (corn (Zea mays); [12]): 0 | Plant response rating, Corn (corn (Zea mays); [13]): 0
